{"source": "PubChem BioAssay AID2060500", "about": "(Molecular Pharmacology Branch, DTP, NCI, 2025);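 further: spheroids exposed to drugs for 7 days before viability reading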", "tested_on": "596521-263-R-J1-PDC complex spheroids, viability % of control", "experiment": "Anticancer human tumor 596521-263-R-J1-PDC patient-derived soft tissue sarcoma cell line growth inhibition [GQUAD]", "conditions": "for IC50: curve of first compound; for viability, T/C: stronger effect = lower value", "text": "DNA G-quadruplex Stabilizer Agents in Combinations in Complex Spheroids\nA high-throughput screen of multi-cell type tumor spheroids was designed to identify active combinations of DNA G-quadruplex stabilizer agents and targeted small molecules. Complex spheroids include a stromal component modeled by human endothelial cells (HUVEC) and fibroblasts modeled by human mesenchymal stem cells (MSCs). The concentration ranges selected for each drug and investigational agent were based upon clinically achievable concentrations if the clinical Cmax of the agent was known.\nCompounds. The drugs and investigational agents: pidnarulex (CX-5461; NSC782164), APTO-253 (NSC789042), BRACO-19 (NSC847499), peposertib (NSC802822), ceralasertib (NSC780249), elimusertib (NSC800525), camonsertib (NSC841442), AZD-1390 (NSC803789), olaparib (NSC753686), talazoparib (NSC767125), ART-558 (NSC835418), sotorasib (NSC818433), MRTX-1133 (NSC836407), SN-38 (NSC673596), topotecan (NSC609699), etoposide (NSC141540), doxorubicin (NSC123127), gemcitabine (NSC613327), 5-fluorouracil (NSC19893), paclitaxel (NSC125973), vemurafenib (NSC761431), panobinostat (NSC761190), R-306465 (JNJ-16241199; NSC773264), adavosertib (NSC754352), TP-3654 (NSC805149), carboplatin (NSC241240), KSQ-4279 (NSC840948), and staurosporine (NSC755774) were obtained from the National Cancer Institute (NCI) Developmental Therapeutics Program Chemical Repository (34). The FDA-approved anticancer drug set is available from the NCI Developmental Therapeutics Program. […] The stock solutions were prepared in dimethyl sulfoxide (DMSO, Sigma-Aldrich, St. Louis, MO, cat. D2650) at 800-fold the tested concentration and stored at -70 degrees C prior to their use. All drugs and investigational agents were tested over a range starting from a high concentration at or near the clinical Cmax and decreasing in half-log increments. If the clinical Cmax for an agent had not been determined, the highest concentration tested was 10 microM.\n2.3 Cell Culture. All cells were maintained in an incubator at 37 degrees C and 5% CO2 with 95% humidity. The PDC lines were cultured according to standard operating procedures established by the NCI PDMR. All PDCs were thawed and cultured in Matrigel-coated flasks prepared with a working solution of 1X Ham's F-12 nutrient mix, without supplementation (Invitrogen, cat. 11765054), 100 U/mL penicillin-streptomycin (Invitrogen, cat. 15140122), and 2.5% Matrigel (Corning Inc., cat. 354248) for the first three passages. The 857933-349-R-J2-PDC line was cultured in 6C/Colon 1B media, which includes advanced DMEM/F-12 (Thermo Fisher Scientific, cat. 12634028), 10 mM HEPES (Thermo Fisher Scientific, cat. 15630080), 1X GlutaMAX supplement (Thermo Fisher Scientific, cat. 35050061), 0.1 mg/mL primocin (InvivoGen, cat. ant-pm-2), 10% defined fetal bovine serum, heat inactivated (HyClone Laboratories Inc., cat. SH30070.03HI), 50% L-WRN conditioned media (ATCC, cat. CRL-3276), 1.25 mM N-Acetyl-L-cysteine (Sigma-Aldrich, cat. A9165), 10 mM nicotinamide (Sigma-Aldrich, cat. N0636), 1X B-27 supplement (Thermo Fisher Scientific, cat. 17504044), 1X N-2 supplement (Thermo Fisher Scientific, cat. 17502048), 10 microM Y-27632 dihydrochloride (Tocris Bioscience, cat. 1254), and 50 ng/mL human EGF recombinant protein (Thermo Fisher Scientific, cat. PHG0311). The 485176-168-R4-J1-PDC line was cultured in Panc media, which includes all 6C/Colon 1B media components plus 100 ng/mL human FGF-10 (Thermo Fisher Scientific, cat. 100-26), 500 nM SB-431542 (Selleckchem, cat. S1067), and gastrin (Tocris, cat. 3006).\n[…]", "data": [{"smiles": "COc1ccc([C@@H](O)c2cc(-c3ncnc4cc(N5CCOCC5)ccc34)c(F)cc2Cl)nn1", "note": "+ CN(C)c1ccc(Nc2c3ccc(NC(=O)CCN4CCCC4)cc3nc3cc(NC(=O)CCN4CCCC4)ccc23)cc1", "values": [{"measurement": "IC50", "setting": "second compound 0.0316 µM", "result": 7.69, "unit": "µM"}, {"measurement": "IC50", "setting": "second compound 0.1 µM", "result": 9.12, "unit": "µM"}, {"measurement": "IC50", "setting": "second compound 0.316 µM", "result": "> 10", "unit": "µM"}, {"measurement": "IC50", "setting": "second compound 1 µM", "result": 7.49, "unit": "µM"}, {"measurement": "IC50", "setting": "second compound 3.16 µM", "result": "> 10", "unit": "µM"}, {"measurement": "IC50", "setting": "second compound 10 µM", "result": 1.16, "unit": "µM"}, {"measurement": "viability, T/C", "setting": "second compound 0.0316 µM, first compound 0.0316 µM", "result": 95.1, "unit": "%"}, {"measurement": "viability, T/C", "setting": "second compound 0.0316 µM, first compound 0.1 µM", "result": 91.2, "unit": "%"}, {"measurement": "viability, T/C", "setting": "second compound 0.0316 µM, first compound 0.316 µM", "result": 97.5, "unit": "%"}, {"measurement": "viability, T/C", "setting": "second compound 0.0316 µM, first compound 1 µM", "result": 88.4, "unit": "%"}, {"measurement": "viability, T/C", "setting": "second compound 0.0316 µM, first compound 3.16 µM", "result": 67.7, "unit": "%"}, {"measurement": "viability, T/C", "setting": "second compound 0.0316 µM, first compound 10 µM", "result": 44.8, "unit": "%"}, {"measurement": "viability, T/C", "setting": "second compound 0.1 µM, first compound 0.0316 µM", "result": 89.5, "unit": "%"}, {"measurement": "viability, T/C", "setting": "second compound 0.1 µM, first compound 0.1 µM", "result": 101, "unit": "%"}, {"measurement": "viability, T/C", "setting": "second compound 0.1 µM, first compound 0.316 µM", "result": 91.9, "unit": "%"}, {"measurement": "viability, T/C", "setting": "second compound 0.1 µM, first compound 1 µM", "result": 77.1, "unit": "%"}, {"measurement": "viability, T/C", "setting": "second compound 0.1 µM, first compound 3.16 µM", "result": 65.6, "unit": "%"}, {"measurement": "viability, T/C", "setting": "second compound 0.1 µM, first compound 10 µM", "result": 48.1, "unit": "%"}, {"measurement": "viability, T/C", "setting": "second compound 0.316 µM, first compound 0.0316 µM", "result": 96.1, "unit": "%"}, {"measurement": "viability, T/C", "setting": "second compound 0.316 µM, first compound 0.1 µM", "result": 94.2, "unit": "%"}, {"measurement": "viability, T/C", "setting": "second compound 0.316 µM, first compound 0.316 µM", "result": 81.1, "unit": "%"}, {"measurement": "viability, T/C", "setting": "second compound 0.316 µM, first compound 1 µM", "result": 81.8, "unit": "%"}, {"measurement": "viability, T/C", "setting": "second compound 0.316 µM, first compound 3.16 µM", "result": 64.1, "unit": "%"}, {"measurement": "viability, T/C", "setting": "second compound 0.316 µM, first compound 10 µM", "result": 51.8, "unit": "%"}, {"measurement": "viability, T/C", "setting": "second compound 1 µM, first compound 0.0316 µM", "result": 93.8, "unit": "%"}, {"measurement": "viability, T/C", "setting": "second compound 1 µM, first compound 0.1 µM", "result": 84.3, "unit": "%"}, {"measurement": "viability, T/C", "setting": "second compound 1 µM, first compound 0.316 µM", "result": 93.9, "unit": "%"}, {"measurement": "viability, T/C", "setting": "second compound 1 µM, first compound 1 µM", "result": 83.4, "unit": "%"}, {"measurement": "viability, T/C", "setting": "second compound 1 µM, first compound 3.16 µM", "result": 63.2, "unit": "%"}, {"measurement": "viability, T/C", "setting": "second compound 1 µM, first compound 10 µM", "result": 45.6, "unit": "%"}, {"measurement": "viability, T/C", "setting": "second compound 3.16 µM, first compound 0.0316 µM", "result": 87.4, "unit": "%"}, {"measurement": "viability, T/C", "setting": "second compound 3.16 µM, first compound 0.1 µM", "result": 87.5, "unit": "%"}, {"measurement": "viability, T/C", "setting": "second compound 3.16 µM, first compound 0.316 µM", "result": 84.7, "unit": "%"}, {"measurement": "viability, T/C", "setting": "second compound 3.16 µM, first compound 1 µM", "result": 66.1, "unit": "%"}, {"measurement": "viability, T/C", "setting": "second compound 3.16 µM, first compound 3.16 µM", "result": 64.1, "unit": "%"}, {"measurement": "viability, T/C", "setting": "second compound 3.16 µM, first compound 10 µM", "result": 49.5, "unit": "%"}, {"measurement": "viability, T/C", "setting": "second compound 10 µM, first compound 0.0316 µM", "result": 70.5, "unit": "%"}, {"measurement": "viability, T/C", "setting": "second compound 10 µM, first compound 0.1 µM", "result": 56.7, "unit": "%"}, {"measurement": "viability, T/C", "setting": "second compound 10 µM, first compound 0.316 µM", "result": 59.1, "unit": "%"}, {"measurement": "viability, T/C", "setting": "second compound 10 µM, first compound 1 µM", "result": 48.4, "unit": "%"}, {"measurement": "viability, T/C", "setting": "second compound 10 µM, first compound 3.16 µM", "result": 49.4, "unit": "%"}, {"measurement": "viability, T/C", "setting": "second compound 10 µM, first compound 10 µM", "result": 31.6, "unit": "%"}]}]}
